{
  "source": "ChEMBL document CHEMBL4251601",
  "about": "(Eur J Med Chem, 2018)",
  "key": {"[1]": {"assay": "Half life in Sprague-Dawley rat at 5 mg/kg, po administered as single dose by LC-MS/MS analysis", "format": "ADME, organism-based", "details": "in vivo"}, "[2]": {"molecular_target": "Tyrosine-protein kinase JAK3 (Homo sapiens, UniProt P52333)", "assay": "Inhibition of recombinant human GST-tagged JAK3 cytoplasmic domain (781 to 1124 residues) expressed in baculovirus expression system using ULight-JAK-1 peptide as substrate preincubated for 15 mins followed by ATP addition measured after 90 mins"}, "[3]": {"molecular_target": "Mitogen-activated protein kinase kinase kinase 14 (Homo sapiens, UniProt Q99558)", "assay": "Inhibition of recombinant human GST-tagged NIK expressed in baculovirus expression system using ser/thr-7 as substrate preincubated for 15 mins followed by ATP addition measured after 60 mins"}, "[4]": {"molecular_target": "Aurora kinase B (Homo sapiens) (UniProt Q96GD4)", "sequence (Q96GD4 whole entry)": "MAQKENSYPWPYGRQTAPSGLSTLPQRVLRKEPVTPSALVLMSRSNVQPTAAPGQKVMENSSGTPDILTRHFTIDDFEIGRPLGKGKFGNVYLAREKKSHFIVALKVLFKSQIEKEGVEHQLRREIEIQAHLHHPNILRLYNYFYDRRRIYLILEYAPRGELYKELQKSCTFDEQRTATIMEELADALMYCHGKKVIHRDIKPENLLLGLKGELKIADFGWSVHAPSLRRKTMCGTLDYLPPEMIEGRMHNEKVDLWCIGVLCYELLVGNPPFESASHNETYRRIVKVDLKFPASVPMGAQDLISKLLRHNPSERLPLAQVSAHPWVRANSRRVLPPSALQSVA", "assay": "Inhibition of recombinant full length human His-tagged AURKB expressed in baculovirus expression system at 0.1 uM by Z'-Lyte assay relative to control"}, "[5]": {"molecular_target": "Serine/threonine-protein kinase Chk2 (Homo sapiens) (UniProt O96017)", "assay": "Inhibition of recombinant full length human His-tagged CHEK2 expressed in baculovirus expression system at 0.1 uM by Z'-Lyte assay relative to control"}, "[6]": {"molecular_target": "Casein kinase II subunit alpha (Homo sapiens) (UniProt P68400)", "sequence (P68400 whole entry, looked up)": "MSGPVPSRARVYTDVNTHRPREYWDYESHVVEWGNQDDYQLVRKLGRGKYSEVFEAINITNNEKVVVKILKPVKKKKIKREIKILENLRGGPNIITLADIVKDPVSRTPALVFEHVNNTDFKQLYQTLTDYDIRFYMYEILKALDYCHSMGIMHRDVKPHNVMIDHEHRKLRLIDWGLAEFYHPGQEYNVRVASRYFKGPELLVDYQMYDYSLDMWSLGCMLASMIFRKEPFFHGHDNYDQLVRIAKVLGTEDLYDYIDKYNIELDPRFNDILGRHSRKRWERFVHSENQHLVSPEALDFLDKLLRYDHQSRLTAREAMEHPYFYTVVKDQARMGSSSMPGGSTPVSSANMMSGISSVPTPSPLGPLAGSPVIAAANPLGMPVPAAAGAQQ", "assay": "Inhibition of recombinant full length human His-tagged CK2alpha1 expressed in baculovirus expression system at 0.1 uM by Z'-Lyte assay relative to control"}, "[7]": {"tested_on": "Epidermal growth factor receptor (Homo sapiens), P00533 [L858R,T790M]", "assay": "Inhibition of recombinant human GST-tagged EGFR T790M/L858R double mutant expressed in baculovirus expression system at 0.1 uM by TR-FRET assay relative to control"}, "[8]": {"molecular_target": "Ephrin type-A receptor 2 (Homo sapiens) (UniProt P29317)", "assay": "Inhibition of recombinant human GST-tagged EPHA2 cytoplasmic domain expressed in baculovirus expression system at 0.1 uM by Z'-Lyte assay relative to control"}, "[9]": {"molecular_target": "G protein-coupled receptor kinase 3 (Homo sapiens) (UniProt P35626)", "assay": "Inhibition of recombinant human full length GST-tagged GRK3 expressed in baculovirus expression system at 0.1 uM by Z'-Lyte assay relative to control"}, "[10]": {"molecular_target": "Tyrosine-protein kinase ITK/TSK (Homo sapiens) (UniProt Q08881)", "sequence (Q08881 whole entry)": "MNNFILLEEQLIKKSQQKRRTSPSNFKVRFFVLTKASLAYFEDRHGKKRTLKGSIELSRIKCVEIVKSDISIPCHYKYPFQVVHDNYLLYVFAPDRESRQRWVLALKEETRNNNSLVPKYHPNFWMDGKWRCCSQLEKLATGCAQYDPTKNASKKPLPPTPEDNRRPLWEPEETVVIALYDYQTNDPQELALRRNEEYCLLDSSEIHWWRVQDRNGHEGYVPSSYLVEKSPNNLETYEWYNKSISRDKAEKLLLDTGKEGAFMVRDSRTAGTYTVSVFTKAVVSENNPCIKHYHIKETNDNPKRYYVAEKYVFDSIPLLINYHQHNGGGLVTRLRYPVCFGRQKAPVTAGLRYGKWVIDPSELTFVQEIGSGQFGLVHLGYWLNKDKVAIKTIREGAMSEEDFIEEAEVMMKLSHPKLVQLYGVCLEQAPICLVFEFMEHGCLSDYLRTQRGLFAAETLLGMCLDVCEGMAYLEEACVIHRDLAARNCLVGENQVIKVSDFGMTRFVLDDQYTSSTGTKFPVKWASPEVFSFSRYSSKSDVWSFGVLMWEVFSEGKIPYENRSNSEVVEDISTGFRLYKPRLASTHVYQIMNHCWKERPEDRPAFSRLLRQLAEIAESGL", "assay": "Inhibition of recombinant full length human GST-tagged ITK expressed in baculovirus expression system at 0.1 uM by TR-FRET assay relative to control"}, "[11]": {"molecular_target": "CDK8/Cyclin C (Homo sapiens) (UniProt P49336+P24863)", "assay": "Inhibition of recombinant full length human His-tagged CDK8/Cyclin-C expressed in baculovirus expression system at 1 uM by LanthaScreen assay relative to control"}, "[12]": {"molecular_target": "Beta-adrenergic receptor kinase 1 (Homo sapiens) (UniProt P25098)", "assay": "Inhibition of recombinant human full length His-tagged GRK2 expressed in baculovirus expression system at 1 uM by Z'-Lyte assay relative to control"}, "[13]": {"molecular_target": "Insulin receptor (Homo sapiens) (UniProt P06213)", "assay": "Inhibition of recombinant human GST-tagged INSR cytoplasmic domain expressed in baculovirus expression system at 1 uM by Z'-Lyte assay relative to control"}, "[14]": {"molecular_target": "Vascular endothelial growth factor receptor 2 (Homo sapiens) (UniProt P35968)", "assay": "Inhibition of recombinant human His-tagged KDR cytoplasmic domain expressed in baculovirus expression system at 1 uM by Z'-Lyte assay relative to control"}, "[15]": {"molecular_target": "3-phosphoinositide-dependent protein kinase 1 (Homo sapiens) (UniProt O15530)", "sequence (O15530 whole entry)": "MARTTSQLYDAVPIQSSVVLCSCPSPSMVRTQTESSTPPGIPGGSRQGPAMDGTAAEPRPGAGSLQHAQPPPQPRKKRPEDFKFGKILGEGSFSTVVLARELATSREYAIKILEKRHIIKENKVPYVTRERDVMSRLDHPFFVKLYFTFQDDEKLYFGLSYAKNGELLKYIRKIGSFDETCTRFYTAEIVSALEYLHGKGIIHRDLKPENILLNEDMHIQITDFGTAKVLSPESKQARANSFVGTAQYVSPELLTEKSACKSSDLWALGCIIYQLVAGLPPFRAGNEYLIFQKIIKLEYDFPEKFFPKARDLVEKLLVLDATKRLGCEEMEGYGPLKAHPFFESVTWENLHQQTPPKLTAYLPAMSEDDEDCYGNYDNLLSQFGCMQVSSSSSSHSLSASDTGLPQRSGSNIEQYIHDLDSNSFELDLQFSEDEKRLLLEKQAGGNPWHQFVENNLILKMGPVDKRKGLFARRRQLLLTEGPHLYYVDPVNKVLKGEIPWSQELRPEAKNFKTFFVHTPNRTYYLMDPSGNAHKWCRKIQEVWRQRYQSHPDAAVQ", "assay": "Inhibition of recombinant human full length His-tagged PDK1 expressed in baculovirus expression system at 1 uM by Z'-Lyte assay relative to control"}, "[16]": {"molecular_target": "PI3-kinase p110-alpha/p85-alpha (Homo sapiens) (UniProt P27986+P42336)", "assay": "Inhibition of recombinant full-length human N-terminal His6-tagged p110alpha/p85alpha expressed in baculovirus infected Sf21 cells at 1 uM by ADP-Glo assay relative to control"}, "[17]": {"molecular_target": "Protein-tyrosine kinase 6 (Homo sapiens) (UniProt Q13882)", "sequence (Q13882 whole entry, looked up)": "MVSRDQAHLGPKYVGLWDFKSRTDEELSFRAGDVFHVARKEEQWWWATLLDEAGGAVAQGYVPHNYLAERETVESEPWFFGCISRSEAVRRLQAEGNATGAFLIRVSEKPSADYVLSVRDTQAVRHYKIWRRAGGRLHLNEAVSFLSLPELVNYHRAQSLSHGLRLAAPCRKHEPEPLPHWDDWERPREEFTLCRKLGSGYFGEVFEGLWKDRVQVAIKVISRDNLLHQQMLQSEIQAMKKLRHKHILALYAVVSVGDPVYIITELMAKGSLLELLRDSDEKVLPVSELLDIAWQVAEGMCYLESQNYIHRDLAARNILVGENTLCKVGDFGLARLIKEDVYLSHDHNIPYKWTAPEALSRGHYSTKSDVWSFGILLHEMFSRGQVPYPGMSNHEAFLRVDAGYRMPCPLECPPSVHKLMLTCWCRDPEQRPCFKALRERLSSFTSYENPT", "assay": "Inhibition of recombinant human full length His-tagged PTK6 expressed in baculovirus expression system at 1 uM by TR-FRET assay relative to control"}, "[18]": {"molecular_target": "Proto-oncogene tyrosine-protein kinase receptor Ret (Homo sapiens) (UniProt P07949)", "sequence (P07949 whole entry, the tested form may be a part)": "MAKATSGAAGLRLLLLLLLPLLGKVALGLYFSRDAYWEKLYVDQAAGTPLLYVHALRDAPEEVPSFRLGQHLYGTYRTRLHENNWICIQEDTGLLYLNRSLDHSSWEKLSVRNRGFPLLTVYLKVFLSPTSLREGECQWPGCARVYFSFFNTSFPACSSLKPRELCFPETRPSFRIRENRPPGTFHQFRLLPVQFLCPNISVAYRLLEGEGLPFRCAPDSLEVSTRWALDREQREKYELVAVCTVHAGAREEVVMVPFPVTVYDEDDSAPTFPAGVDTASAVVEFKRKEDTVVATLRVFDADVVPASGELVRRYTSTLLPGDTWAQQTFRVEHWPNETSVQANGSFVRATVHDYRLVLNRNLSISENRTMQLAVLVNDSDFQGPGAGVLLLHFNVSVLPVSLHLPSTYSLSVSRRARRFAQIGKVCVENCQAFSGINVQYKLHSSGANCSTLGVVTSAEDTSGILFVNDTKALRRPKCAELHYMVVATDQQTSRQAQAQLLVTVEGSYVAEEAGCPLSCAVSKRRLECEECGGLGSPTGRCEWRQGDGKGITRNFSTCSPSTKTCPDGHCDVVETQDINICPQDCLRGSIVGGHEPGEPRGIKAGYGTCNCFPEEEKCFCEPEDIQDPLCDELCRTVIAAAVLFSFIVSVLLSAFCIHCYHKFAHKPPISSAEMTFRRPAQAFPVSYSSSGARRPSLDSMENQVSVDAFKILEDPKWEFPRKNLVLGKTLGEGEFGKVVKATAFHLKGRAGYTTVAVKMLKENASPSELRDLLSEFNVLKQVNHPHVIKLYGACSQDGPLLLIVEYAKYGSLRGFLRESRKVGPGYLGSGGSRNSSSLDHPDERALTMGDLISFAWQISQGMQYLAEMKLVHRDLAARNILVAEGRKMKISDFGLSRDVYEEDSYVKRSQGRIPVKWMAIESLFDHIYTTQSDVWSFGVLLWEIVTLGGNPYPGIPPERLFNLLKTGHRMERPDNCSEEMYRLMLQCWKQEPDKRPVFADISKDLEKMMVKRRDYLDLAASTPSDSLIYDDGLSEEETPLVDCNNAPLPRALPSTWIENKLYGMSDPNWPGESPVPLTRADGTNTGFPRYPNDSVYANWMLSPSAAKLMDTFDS", "assay": "Inhibition of recombinant human GST-tagged RET cytoplasmic domain (658 to 1114 residues) expressed in baculovirus expression system at 1 uM by Z'-Lyte assay relative to control"}, "[19]": {"molecular_target": "STE20-like serine/threonine-protein kinase (Homo sapiens) (UniProt Q9H2G2)", "sequence (Q9H2G2 whole entry, looked up)": "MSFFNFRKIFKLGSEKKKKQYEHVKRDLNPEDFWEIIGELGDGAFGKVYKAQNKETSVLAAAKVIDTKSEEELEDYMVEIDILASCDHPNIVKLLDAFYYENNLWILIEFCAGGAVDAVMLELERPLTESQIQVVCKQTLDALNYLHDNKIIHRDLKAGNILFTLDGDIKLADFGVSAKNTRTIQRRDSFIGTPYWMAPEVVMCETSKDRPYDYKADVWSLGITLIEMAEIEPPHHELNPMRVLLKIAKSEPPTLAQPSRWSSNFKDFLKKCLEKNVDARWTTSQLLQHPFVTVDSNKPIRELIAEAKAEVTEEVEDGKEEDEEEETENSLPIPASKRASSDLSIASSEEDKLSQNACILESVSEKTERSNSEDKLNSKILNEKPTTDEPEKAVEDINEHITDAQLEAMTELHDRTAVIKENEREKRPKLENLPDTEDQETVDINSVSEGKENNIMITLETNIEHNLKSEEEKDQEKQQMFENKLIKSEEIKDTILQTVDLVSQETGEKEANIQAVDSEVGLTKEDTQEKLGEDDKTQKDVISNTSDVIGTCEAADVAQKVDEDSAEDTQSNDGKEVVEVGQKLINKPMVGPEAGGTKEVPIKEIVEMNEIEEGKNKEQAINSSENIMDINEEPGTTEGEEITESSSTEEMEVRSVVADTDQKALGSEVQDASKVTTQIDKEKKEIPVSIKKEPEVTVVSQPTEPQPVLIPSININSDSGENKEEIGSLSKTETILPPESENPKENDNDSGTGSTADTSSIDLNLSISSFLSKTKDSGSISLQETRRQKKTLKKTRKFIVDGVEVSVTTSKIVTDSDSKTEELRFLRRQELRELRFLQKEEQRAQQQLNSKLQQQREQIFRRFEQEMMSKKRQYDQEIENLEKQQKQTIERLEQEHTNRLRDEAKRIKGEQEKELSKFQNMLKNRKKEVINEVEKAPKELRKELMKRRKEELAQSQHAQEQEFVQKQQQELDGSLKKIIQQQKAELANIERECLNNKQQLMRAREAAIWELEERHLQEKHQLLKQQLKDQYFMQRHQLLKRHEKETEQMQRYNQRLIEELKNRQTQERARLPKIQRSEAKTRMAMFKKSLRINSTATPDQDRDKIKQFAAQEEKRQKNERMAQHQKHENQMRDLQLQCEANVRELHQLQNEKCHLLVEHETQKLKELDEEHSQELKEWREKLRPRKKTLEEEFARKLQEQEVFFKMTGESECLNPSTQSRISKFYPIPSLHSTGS", "assay": "Inhibition of recombinant human full length GST-tagged SLK expressed in baculovirus expression system at 1 uM by LanthaScreen assay relative to control"}, "[20]": {"molecular_target": "Angiopoietin-1 receptor (Homo sapiens) (UniProt Q02763)", "assay": "Inhibition of recombinant human GST-tagged TIE2 cytoplasmic domain expressed in baculovirus expression system at 1 uM by Z'-Lyte assay relative to control"}, "[21]": {"molecular_target": "High affinity nerve growth factor receptor (Homo sapiens) (UniProt P04629)", "assay": "Inhibition of recombinant human His-tagged TRKA cytoplasmic domain expressed in baculovirus expression system at 1 uM by Z'-Lyte assay relative to control"}, "[22]": {"molecular_target": "Tyrosine-protein kinase receptor TYRO3 (Homo sapiens) (UniProt Q06418)", "assay": "Inhibition of recombinant human GST-tagged TYRO3 cytoplasmic domain (451 to 890 residues) expressed in baculovirus expression system at 1 uM by Z'-Lyte assay relative to control"}, "[23]": {"assay": "Cmax in ICR mouse at 5 mg/kg, po administered as single dose by LC-MS/MS analysis", "format": "ADME, organism-based", "set-up": "dose 5 mg/kg, route oral", "details": "in vivo"}, "[24]": {"assay": "Cmax in CD-1 mouse plasma at 10 mg/kg, po administered as single dose by LC-MS/MS analysis", "format": "ADME, organism-based", "set-up": "dose 10 mg/kg, route oral"}, "[25]": {"assay": "Tmax in CD-1 mouse plasma at 10 mg/kg, po administered as single dose by LC-MS/MS analysis", "format": "ADME, organism-based"}, "[26]": {"assay": "Unbound AUC (0 to 24 hrs) in CD-1 mouse plasma at 10 mg/kg, po administered as single dose by LC-MS/MS analysis", "format": "ADME, organism-based", "details": "in vivo"}, "[27]": {"assay": "AUC (0 to infinity) in CD-1 mouse brain at 10 mg/kg, po administered as single dose by LC-MS/MS analysis", "format": "ADME, organism-based", "set-up": "dose 10 mg/kg, time infinity, route oral", "details": "in vivo"}, "[28]": {"assay": "Unbound AUC (0 to 24 hrs) in CD-1 mouse brain at 10 mg/kg, po administered as single dose by LC-MS/MS analysis", "format": "ADME, organism-based", "details": "in vivo"}, "U-87 MG": {"tested_on": "U-87 MG", "assay": "Antitumor activity against luciferase-fused human U87MG cells orthotopically xenografted in nude mouse assessed as increase in mouse life span at 12.5 mg/kg, po qd for 5 weeks relative to control", "format": "functional, U-87MG ATCC", "details": "840 h"}, "Mus musculus": {"tested_on": "Mus musculus", "assay": "Toxicity in nude mouse orthotopically xenografted with luciferase-fused human U87MG cells assessed as body weight loss at 50 mg/kg, po qd for 5 weeks and measured on day 28 relative to control", "format": "organism-based", "details": "in vivo, 840 h"}, "[29]": {"molecular_target": "Tyrosine-protein kinase SYK (Homo sapiens) (UniProt P43405)", "assay": "Inhibition of recombinant human full length GST-tagged SYK expressed in baculovirus expression system at 1 uM by Z'-Lyte assay relative to control"}},
  "data": [
    {"compound": "CC1=Nc2c(F)cc(-c3nc(Nc4ccc(C5CCN(C)CC5)cn4)ncc3F)cc2C12CCCC2", "note": "[CROZBACICLIB]", "values": [
      {"measurement": "half-life", "setting": "[1]", "value": 8.5, "unit": "h"},
      {"measurement": "IC50", "setting": "[2]", "value": 0.154, "unit": "µM"},
      {"measurement": "IC50", "setting": "[3]", "value": 0.045, "unit": "µM"},
      {"measurement": "inhibition", "setting": "[4]", "value": 0, "unit": "%"},
      {"measurement": "inhibition", "setting": "[5]", "value": -2, "unit": "%"},
      {"measurement": "inhibition", "setting": "[6]", "value": 5, "unit": "%"},
      {"measurement": "inhibition", "setting": "[7]", "value": 27, "unit": "%"},
      {"measurement": "inhibition", "setting": "[8]", "value": 6, "unit": "%"},
      {"measurement": "inhibition", "setting": "[9]", "value": -7, "unit": "%"},
      {"measurement": "inhibition", "setting": "[10]", "value": -8, "unit": "%"},
      {"measurement": "inhibition", "setting": "[11]", "value": 85, "unit": "%"},
      {"measurement": "inhibition", "setting": "[12]", "value": -1, "unit": "%"},
      {"measurement": "inhibition", "setting": "[13]", "value": 12, "unit": "%"},
      {"measurement": "inhibition", "setting": "[14]", "value": 14, "unit": "%"},
      {"measurement": "inhibition", "setting": "[15]", "value": 4, "unit": "%"},
      {"measurement": "inhibition", "setting": "[16]", "value": 4, "unit": "%"},
      {"measurement": "inhibition", "setting": "[17]", "value": 34, "unit": "%"},
      {"measurement": "inhibition", "setting": "[18]", "value": 10, "unit": "%"},
      {"measurement": "inhibition", "setting": "[19]", "value": 42, "unit": "%"},
      {"measurement": "inhibition", "setting": "[20]", "value": -2, "unit": "%"},
      {"measurement": "inhibition", "setting": "[21]", "value": 48, "unit": "%"},
      {"measurement": "inhibition", "setting": "[22]", "value": 4, "unit": "%"},
      {"measurement": "Cmax", "setting": "[23]", "value": 134, "unit": "ng/mL"},
      {"measurement": "Cmax", "setting": "[24]", "value": 818, "unit": "ng/mL"},
      {"measurement": "Tmax", "setting": "[25]", "value": 2, "unit": "h"},
      {"measurement": "fAUC", "setting": "[26]", "value": 63.45, "unit": "ng·h/mL"},
      {"measurement": "AUC", "setting": "[27]", "value": 37438, "unit": "ng·h/g"},
      {"measurement": "fAUC", "setting": "[28]", "value": 14.87, "unit": "ng·h/g"},
      {"measurement": "ILS at 12.5 mg/kg", "setting": "U-87 MG", "value": 48, "unit": "%"},
      {"measurement": "Activity", "setting": "Mus musculus", "value": 4.2, "unit": "%"},
      {"measurement": "inhibition", "setting": "[29]", "value": 26, "unit": "%"}
    ]}
  ]
}
